Measured values from patent US5602110A, “Method and composition for treating cystic fibrosis” (Case Western Reserve University, priority 1995, dated 1997).

How the values were obtained:
[1] = tested on: CF nasal polyp epithelial cells homozygous for the ΔF508 mutation; experiment: 36Cl chloride efflux assay in primary CF nasal polyp epithelial cells; format: cell-based, human; details: for chloride efflux rate increase (chloride transport) in the CF cells: primary CF nasal polyp cells, isoproterenol 10 μM, milrinone 100 μM or IBMX 100 μM as labelled
Experimental: A test was run to confirm that the chloride efflux in primary CF cells (as opposed to CF-T43 cells used above) is mediated by the cAMP-dependent, protein kinase A pathway and not by calcium-dependent chloride channels. Efflux assays were carried out on primary CF cells, being CF nasal polyp epithelial cells homozygous for the ΔF508 mutation. Any significant contribution of calcium-activated chloride channels was ruled out by incubating the cells in BAPTA-AM, and comparing the response induced by ionomycin to that of albuterol combined with milrinone.
Transformed cell lines often have altered properties relative to the tissues from which they were derived. To determine if the responses seen in the transformed CF-T43 cells were representative of primary tissue cells, primary epithelial cells from CF nasal polyps were assayed for chloride efflux. Tissues were obtained from nasal polypectomies of CF patients and epithelial cells were isolated by digesting cells from basement membrane by collagenase followed by low speed centrifugations. After counting viable cells, cells were plated and assayed in the same way as the CF-T43 cells. A total of 5 such experiments were performed with polyp cells from different, unrelated patients.
The effects of these compounds on chloride permeability were measured as the rate of ^36 Cl efflux after stimulation divided by the basal rate, given as rstim /rbas. […] Both CF types are homozygous for the ΔF508 mutation.

[2] = tested on: CF-T43 cells (ΔF508 CFTR); experiment: 36Cl chloride efflux assay in CF-T43 cells; format: cell-based; details: for chloride efflux: agent(s) as labelled, no other drug, FIG. 1, FIG. 2; for chloride efflux rate increase (chloride transport) in the CF cells: CF-T43, isoproterenol 10 μM, milrinone 100 μM or IBMX 100 μM as labelled; for effect of added agent on chloride efflux stimulated by isoproterenol and milrinone: added to milrinone and isoproterenol, FIG. 2
Experimental: (§1) Two independent cell lines, Calu-3 and 16HBE, both derived from airway epithelial cells and both expressing normal CFTR (Shen et al., 1994; Haws et al., 1994; Haws et al., 1992) were assayed for increased Cl transport either by a radioisotopic flux assay or electrophysiologically. Using the method of Venglarik et al. (1990), cells were incubated in a Ringer's solution containing ^36 Cl to allow uptake of isotope into the cells, and then washed to remove external isotopic chloride. Efflux was measured by replacing the incubation solution every 30 seconds and quantitating the amount of ^36 Cl secreted into it. After 6 changes of solution (3 minutes), either drugs or placebos were added to the media. […] Efflux was then measured an additional 12 media changes (6 minutes).
CF-T43 is an SV40 T-antigen transformed cell line derived from a CF nasal turbinate (Jetten, et al., 1989). These cells maintain many of the original epithelial characteristics, including defective cAMP-dependant chloride transport, and have been used as a model for CF airway cells, CF-T43 cells carry and express only the ΔF508 CFTR mutation. […] With reference to FIG. 1, the control efflux contains Hepes-buffered Ringer's solution (HBR) +0.2% dimethylsulfoxide (DMSO), which is the concentration of DMSO in which the drugs were dissolved. The arrow indicates when the drugs were added. Iso means isoproterenol; Mil means milrinone.

[3] = tested on: mutant CFTR in CF epithelial cells; details: Grubb et al. 1992; cited from earlier work
[4] = tested on: Calu-3 and 16HBE airway epithelial cells expressing normal CFTR; experiment: 36Cl chloride efflux assay in airway epithelial cell lines expressing normal CFTR; format: cell-based; details: 100 μM each drug alone; Calu-3 and 16HBE cells
Experimental: The nomenclature for cyclic nucleotide phosphodiesterases, as follows, is taken from Beavo (1990).
as §1

[5] = tested on: ΔF508 CFTR in Xenopus laevis oocytes; details: high concentrations of IBMX with relatively low concentrations of forskolin; cited from earlier work
[6] = tested on: 16HBE cells; experiment: Whole-cell voltage clamp; format: cell-based
Experimental: Whole-cell voltage clamp was used to confirm that the chloride efflux was consistent with CFTR activation. 16HBE cells were exposed to varying concentrations of milrinone and the membrane potential clamped in increments of 10 mV from -150 mV to +50 mV. The resulting current was then plotted as a function of voltage. […] A linear current/voltage relationship is a characteristic of CFTR activation. If currents are carried by chloride there should be a reduction in current at any given voltage when chloride is replaced by an ion to which CFTR is impermeante, such as gluconate.

[7] = tested on: cellular cAMP in CF-T43 cells; details: in combination with isoproterenol 10 μM
[8] = tested on: normal CFTR in 293 cells; details: forskolin alone; normal type-transfected 293 cells
[9] = 100 μM glibenclamide, CF-T43 cells

For CNCCNS(=O)(=O)c1cccc2cnccc12 [H-8, N[-2-(methylamino)ethyl]-5-isoquinoline sulfonamide], the “effect of preincubation on the isoproterenol/milrinone chloride efflux response” value ([1]; CF nasal polyp cells preincubated in H-8) was “dramatically reduced”.
For COc1ccc(Cl)cc1C(=O)NCCc1ccc(S(=O)(=O)NC(=O)NC2CCCCC2)cc1 [glibenclamide], the “effect on efflux elicited by ionomycin” value [2, 9] was “little effect” and the “inhibition of β-adrenergic agonist/milrinone-stimulated efflux” value [2, 9] was “completely inhibited”.
For C[C@H](CCC(=O)O)C[C@H](C)C[C@H](C)C(=O)/C=C(\O)[C@H](C)C[C@H](C)C/C=C/[C@@H](C)[C@@H](O)[C@@H](C)[C@@H](O)C[C@@H]1CC[C@@](C)([C@H]2CC[C@@](C)([C@@H](C)O)O2)O1 [ionomycin], the “chloride efflux response relative to the isoproterenol/milrinone response” value ([2]; CF-T43 cells) was “greater than the isoproterenol/milrinone response”, the “chloride efflux response in the presence of BAPTA-AM” value ([2]; CF-T43 cells, BAPTA-AM added) was “eliminated” and the “chloride efflux response in the presence of BAPTA-AM” value ([1]; primary CF nasal polyp cells incubated in BAPTA-AM) was “eliminated”.
For CC(C)Cn1c(=O)n(C)c(=O)c2[nH]cnc21 [IBMX, 3-isobutyl-1-methylxanthine], the “activation of a chloride conductance” value [3] is listed as “unable to activate a chloride conductance”, the chloride efflux ([2]; CF-T43 cells) is listed as “not provide an increase in efflux rate” and the “increase in chloride efflux rate” value [4] is listed as “Only the inhibitors specific for type III phosphodiesterases produced detectable increases”. For the same compound, the “activation of ΔF508 CFTR” value [5] was “could be activated”.
In the case of Cc1[nH]c(=O)c(C#N)cc1-c1ccncc1 [milrinone], the “chloride efflux rate increase (chloride transport) in the CF cells” value (“chloride efflux rate increase” for short) [2] is reported as “neither agent alone elicited a rate increase”, the “increase in chloride efflux rate” value [4] is reported as “greatest increase in chloride efflux rate” and the “chloride efflux rate increase” value [1] is reported as “neither agent alone elicited a rate increase”. For the same compound, the “reversal potential of current” value ([6]; all concentrations of milrinone) was 0 mV, the “current when chloride was replaced by gluconate” value ([6]; chloride replaced by gluconate) was “reduction of current” and the “dose dependence of effect on whole-cell current” value ([6]; varying concentrations) was “dose-dependent”. The current/voltage relationship ([6]; varying concentrations of milrinone, clamp -150 mV to +50 mV) was “linear” and the “cAMP increase compared with isoproterenol alone” value [7] was “not significantly above that of isoproterenol alone”.
In the case of Nc1cc(-c2ccncc2)c[nH]c1=O [amrinone], the “increase in chloride efflux rate” value [4] is reported as “greatest increase in chloride efflux rate” and the “increase in cellular cAMP over baseline” value ([7]; 15 minutes, CF-T43 cells) is reported as “same as milrinone”.
For COc1ccc(C2CNC(=O)C2)cc1OC1CCCC1 (stereo not shown) [rolipram], the “increase in chloride efflux rate” value [4] was “Only the inhibitors specific for type III phosphodiesterases produced detectable increases”.
For CC(C)NCC(O)c1ccc(O)c(O)c1 (stereo not shown) [isoproterenol], the “chloride efflux rate increase” value [2] was “neither agent alone elicited a rate increase”, the chloride efflux ([2]; CF-T43 cells) was “no effect on chloride efflux” and the “chloride efflux rate increase” value [1] was “neither agent alone elicited a rate increase”.
For Nc1ncnc2c1ncn2[C@@H]1O[C@@H]2CO[P@@](O)(=S)O[C@H]2[C@H]1O [Rp-cAMPS], the “effect of added agent on chloride efflux stimulated by isoproterenol and milrinone” value ([2]; CF-T43 cells) was “abolished the increase in chloride efflux”.
With Nc1ncnc2c1ncn2[C@@H]1O[C@@H]2COP(O)(=S)O[C@H]2[C@H]1O (stereo partly shown) [Sp-cAMPS, Sp-adenosine 3':5'-cyclic phosphorothioate] the “effect of added agent on chloride efflux stimulated by isoproterenol and milrinone” value ([2]; CF-T43 cells) was “enhanced” and the chloride efflux ([2]; CF-T43 cells) was “no effect on chloride efflux”.
With C=C[C@@]1(C)CC(=O)[C@]2(O)[C@@]3(C)[C@@H](O)CCC(C)(C)[C@@H]3[C@H](O)[C@H](OC(C)=O)[C@@]2(C)O1 [forskolin] the “activation of chloride efflux” value [8] was “sufficient to activate”.
